Assay results published in PubChem BioAssay AID330 (DTP/NCI, 2004).
Values joined by “and” are separate entries in the source; they are usually repeats but may differ in a detail not shown here. Identical values can stand only once. Toxic doses and inconclusive results are not listed.

Tested on: P388 leukemia ip, CD2F1 mice, survival T/C
Experiment: NCI In Vivo Anticancer Drug Screen. Data for tumor model P388 Leukemia (intraperitoneal) in CD2F1 (CDF1) mice
Details: endpoint: median survival time, higher = longer survival
Procedure, shortened: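 Mice carrying the transplanted tumor received test compound or vehicle. Survival was recorded in each group, and the value is the treated-group measurement divided by that of the vehicle-treated control group.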

[1] = dose: 50.0 mg/kg/injection, schedule: Q01DX009 (ip), vehicle: saline with Tween-80
[2] = dose: 100.0 mg/kg/injection, schedule: Q01DX009 (ip), vehicle: saline with Tween-80
[3] = dose: 100.0 mg/kg/injection, schedule: Q04DX002 (ip), vehicle: saline with Tween-80
[4] = dose: 200.0 mg/kg/injection, schedule: Q04DX002 (ip), vehicle: saline with Tween-80
[5] = dose: 400.0 mg/kg/injection, schedule: Q04DX002 (ip), vehicle: saline with Tween-80
[6] = dose: 50.0 mg/kg/injection, schedule: Q01DX009 (ip), vehicle: saline
[7] = dose: 100.0 mg/kg/injection, schedule: Q01DX009 (ip), vehicle: saline
[8] = dose: 200.0 mg/kg/injection, schedule: Q01DX009 (ip), vehicle: saline
[9] = dose: 60.0 mg/kg/injection, schedule: Q01DX005 (ip), vehicle: saline with Tween-80
[10] = dose: 120.0 mg/kg/injection, schedule: Q01DX005 (ip), vehicle: saline with Tween-80
[11] = dose: 240.0 mg/kg/injection, schedule: Q01DX005 (ip), vehicle: saline with Tween-80
[12] = dose: 60.0 mg/kg/injection, schedule: Q01DX005 (ip), vehicle: Klucel (hydroxypropylcellulose) (HPC)
[13] = dose: 120.0 mg/kg/injection, schedule: Q01DX005 (ip), vehicle: Klucel (hydroxypropylcellulose) (HPC)
[14] = dose: 240.0 mg/kg/injection, schedule: Q01DX005 (ip), vehicle: Klucel (hydroxypropylcellulose) (HPC)
[15] = dose: 50.0 mg/kg/injection, schedule: Q01DX005 (ip), vehicle: saline with Tween-80
[16] = dose: 100.0 mg/kg/injection, schedule: Q01DX005 (ip), vehicle: saline with Tween-80
[17] = dose: 200.0 mg/kg/injection, schedule: Q01DX005 (ip), vehicle: saline with Tween-80

CN1CCN=C1c1ccc(NC(=O)c2ccc(C(=O)Nc3ccc(C4=NCCN4C)cc3)cc2)cc1
T/C (dose: 0.4 mg/kg/injection, schedule: Q01DX009 (ip), vehicle: saline with Tween-80): 108 % of control | T/C (dose: 3.0 mg/kg/injection, schedule: Q01DX009 (ip), vehicle: saline with Tween-80): 150 % of control | T/C (dose: 4.0 mg/kg/injection, schedule: Q01DX009 (ip), vehicle: saline): 166 % of control | T/C (dose: 6.0 mg/kg/injection, schedule: Q01DX009 (ip), vehicle: saline with Tween-80): 204 % of control | T/C (dose: 6.0 mg/kg/injection, schedule: Q01DX009 (ip), vehicle: saline): 187 % of control | T/C (dose: 6.25 mg/kg/injection, schedule: Q04DX003 (ip), vehicle: saline with Tween-80): 118 % of control | T/C (dose: 9.0 mg/kg/injection, schedule: Q01DX009 (ip), vehicle: saline): 191 % of control

CB1NN=C(C)c2sccc21
T/C (dose: 25.0 mg/kg/injection, schedule: Q01DX009 (ip), vehicle: saline with Tween-80): 102 % of control | T/C [1]: 103 % of control | T/C [2]: 86 % of control

c1ccc(C2(N3CCOCC3)CSC2)cc1
T/C [3]: 95 % of control | T/C [4]: 98 % of control | T/C [5]: 98 % of control

O=c1cc[nH]c(=S)[nH]1.[Pd]
T/C (dose: 25.0 mg/kg/injection, schedule: Q01DX009 (ip), vehicle: saline): 89 % of control | T/C [6]: 96 % of control | T/C [7]: 91 % of control | T/C [8]: 91 % of control

O=C1NC(=O)C2(CC3CCCC(C2)N3CCO)N1 (stereo not given)
T/C (dose: 50.0 mg/kg/injection, schedule: Q01DX009 (ip), vehicle: water): 101 % of control | T/C (dose: 100.0 mg/kg/injection, schedule: Q01DX009 (ip), vehicle: water): 101 % of control | T/C (dose: 200.0 mg/kg/injection, schedule: Q01DX009 (ip), vehicle: water): 100 % of control

Cc1cc(OCC(=O)N/N=C/c2ccc(N(CCCl)CCCl)cc2)c2ccc(Cl)cc2n1
T/C [6]: 95 % of control and 97 % of control | T/C [7]: 97 % of control | T/C [8]: 101 % of control and 87 % of control

Nc1ncnc2c1ncn2C1OC(COS(N)(=O)=O)C(O)C1O (stereo not given)
T/C (dose: 0.02 mg/kg/injection, schedule: Q01DX005 (ip), vehicle: saline): 98 % of control | T/C (dose: 0.04 mg/kg/injection, schedule: Q01DX005 (ip), vehicle: saline): 103 % of control | T/C (dose: 0.09 mg/kg/injection, schedule: Q01DX005 (ip), vehicle: saline): 119 % of control | T/C (dose: 0.18 mg/kg/injection, schedule: Q01DX001 (ip), vehicle: saline): 109 % of control

N=C1C(O)=CC(=O)C(O)=C1C(=O)O
T/C (dose: 60.0 mg/kg/injection, schedule: Q01DX005 (ip), vehicle: saline): 104 % of control | T/C (dose: 120.0 mg/kg/injection, schedule: Q01DX005 (ip), vehicle: saline): 103 % of control | T/C (dose: 240.0 mg/kg/injection, schedule: Q01DX005 (ip), vehicle: saline): 101 % of control

c1ccc(OCC(COc2ccccc2)(COc2ccccc2)COc2ccccc2)cc1
T/C (dose: 7.5 mg/kg/injection, schedule: Q01DX009 (ip), vehicle: saline with Tween-80): 107 % of control | T/C (dose: 15.0 mg/kg/injection, schedule: Q01DX009 (ip), vehicle: saline with Tween-80): 107 % of control | T/C (dose: 30.0 mg/kg/injection, schedule: Q01DX009 (ip), vehicle: saline with Tween-80): 104 % of control

Cc1cccc(Nc2c3c(nc4ccccc24)CCCCC3)c1
T/C [9]: 98 % of control | T/C [10]: 90 % of control | T/C [11]: 91 % of control

CCOC(=O)C1=C(C(=O)c2ccc(OC)cc2)C(c2cccc([N+](=O)[O-])c2)C(C(=O)c2ccc(OC)cc2)=C(C(=O)OCC)N1
T/C (dose: 30.0 mg/kg/injection, schedule: Q01DX005 (ip), vehicle: saline with Tween-80): 93 % of control | T/C [9]: 90 % of control and 96 % of control | T/C [10]: 94 % of control | T/C [11]: 90 % of control

O=[N+]([O-])/C=C/c1c(Cl)cccc1Cl
T/C (dose: 12.5 mg/kg/injection, schedule: Q04DX003 (ip), vehicle: saline with Tween-80): 99 % of control | T/C (dose: 25.0 mg/kg/injection, schedule: Q04DX003 (ip), vehicle: saline with Tween-80): 100 % of control | T/C (dose: 50.0 mg/kg/injection, schedule: Q04DX003 (ip), vehicle: saline with Tween-80): 100 % of control

COCCOCOC(C)(C)CCCCl
T/C [9]: 106 % of control | T/C [10]: 101 % of control | T/C [11]: 100 % of control

O=C1CSC=NN1c1ccccc1
T/C [9]: 102 % of control | T/C [10]: 92 % of control | T/C [11]: 108 % of control

COc1cc(OC2OC(CO)C(O)C(O)C2O)ccc1/C=C\C(=O)c1ccc(OC2OC(CO)C(O)C(O)C2O)cc1 (stereo not given)
T/C [3]: 91 % of control | T/C [4]: 96 % of control | T/C [5]: 96 % of control

CCCCCC(=O)NC(Cc1ccc(N(CCCl)CCCl)cc1)C(=O)O (stereo not given)
T/C (dose: 1.3 mg/kg/injection, schedule: Q03HX008 (ip), vehicle: saline): 100 % of control | T/C (dose: 1.32 mg/kg/injection, schedule: Q01DX009 (ip), vehicle: saline): 109 % of control | T/C (dose: 2.6 mg/kg/injection, schedule: Q03HX008 (ip), vehicle: saline): 110 % of control | T/C (dose: 2.65 mg/kg/injection, schedule: Q01DX009 (ip), vehicle: saline): 113 % of control | T/C (dose: 5.3 mg/kg/injection, schedule: Q03HX008 (ip), vehicle: saline): 120 % of control | T/C (dose: 21.2 mg/kg/injection, schedule: Q03HX008 (ip), vehicle: saline): 150 % of control

c1ccc2c(NCC3CCN(c4c5ccccc5nc5ccccc45)CC3)c3ccccc3nc2c1
T/C (dose: 25.0 mg/kg/injection, schedule: Q04DX002 (ip), vehicle: saline with Tween-80): 118 % of control | T/C (dose: 50.0 mg/kg/injection, schedule: Q04DX002 (ip), vehicle: saline with Tween-80): 117 % of control | T/C [3]: 111 % of control

CCCCCCCCCCCCNC(=S)C(=S)NCCCCCCCCCCCC
T/C (dose: 25.0 mg/kg/injection, schedule: Q01DX009 (ip), vehicle: Klucel (hydroxypropylcellulose) (HPC)): 98 % of control | T/C (dose: 50.0 mg/kg/injection, schedule: Q01DX009 (ip), vehicle: Klucel (hydroxypropylcellulose) (HPC)): 95 % of control | T/C (dose: 100.0 mg/kg/injection, schedule: Q01DX009 (ip), vehicle: Klucel (hydroxypropylcellulose) (HPC)): 94 % of control

COc1c2ccc(OCC=C(C)C)cc2nc2occc12
T/C (dose: 7.0 mg/kg/injection, schedule: Q01DX005 (ip), vehicle: Klucel + Tween-80): 106 % of control | T/C (dose: 14.0 mg/kg/injection, schedule: Q01DX005 (ip), vehicle: Klucel + Tween-80): 103 % of control | T/C (dose: 28.0 mg/kg/injection, schedule: Q01DX005 (ip), vehicle: Klucel + Tween-80): 99 % of control | T/C (dose: 56.0 mg/kg/injection, schedule: Q01DX005 (ip), vehicle: Klucel + Tween-80): 103 % of control

Nc1nc(N)c2c(ccc3c2ccn3Cc2cccc([N+](=O)[O-])c2)n1
T/C (dose: 1.56 mg/kg/injection, schedule: Q01DX005 (ip), vehicle: saline with Tween-80): 100 % of control and 119 % of control | T/C (dose: 3.12 mg/kg/injection, schedule: Q01DX005 (ip), vehicle: saline with Tween-80): 110 % of control

CCCCN(CCO)CC(O)Cn1cnc2c(N)ncnc21 (stereo not given)
T/C [12]: 94 % of control | T/C [13]: 87 % of control | T/C [14]: 87 % of control

NC1=C(Br)C(=O)C(N)=C(Br)C1=O
T/C [12]: 100 % of control | T/C [13]: 97 % of control | T/C [14]: 105 % of control

O=C1c2ccccc2C(=O)c2ncccc21
T/C (dose: 100.0 mg/kg/injection, schedule: Q04DX003 (ip), vehicle: saline with Tween-80): 100 % of control | T/C (dose: 200.0 mg/kg/injection, schedule: Q04DX003 (ip), vehicle: saline with Tween-80): 99 % of control | T/C (dose: 400.0 mg/kg/injection, schedule: Q04DX003 (ip), vehicle: saline with Tween-80): 100 % of control

CC1=C(c2ccco2)C2(c3ccco3)C(C(=O)c3ccccc3)C2(C)C1=O (stereo not given)
T/C [15]: 90 % of control | T/C [16]: 90 % of control | T/C [17]: 95 % of control

C=COC(=O)C(Cc1cc(OC)c(OC)c(OC)c1)NC(=O)OCc1ccccc1 (stereo not given)
T/C [3]: 102 % of control | T/C [4]: 101 % of control | T/C [5]: 96 % of control

CC1(C)C(=O)c2cc3ccccc3nc2-c2ccccc21
T/C [15]: 100 % of control | T/C [16]: 99 % of control | T/C [17]: 105 % of control

COc1cc2c(cc1OC)C(=O)C(Br)CC2 (stereo not given)
T/C [1]: 104 % of control | T/C [2]: 113 % of control
